From patent publication US20090281054A1, “COMPOSITIONS AND METHODS COMPRISING CAPURAMYCIN ANALOGUES” (priority 2008, published 2009)
Where two headings read alike, the source gives them in different places.

Tested on: MTB
Assay type: cell-based, Mycobacterium tuberculosis

## CCCCCCCCCC(=O)O[C@@H]1[C@H](OC)[C@@H]([C@@H](O[C@H]2OC(C(=O)N[C@H]3CCC[C@@H](C)NC3=O)=C[C@H](O)[C@@H]2O)C(N)=O)O[C@H]1n1ccc(=O)[nH]c1=O [SQ641]
  Frequency of mutation: zero
  Resistant colonies: no colonies
Second experiment, 8 μg/ml SQ641, 1 μg/ml RIF
  Frequency of mutation: zero
